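Following 48 hours of exposure in 96-well plates, responses at five concentrations were used to interpolate endpoints linearly. GI50 is the concentration that inhibits growth by half. TGI: total growth inhibition.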
Columns and labels:
Experiment in all cases: growth of human tumour cells (NCI), 48 h
[1] = tested on: NCI-H460 lung
[2] = tested on: NCI-H522 lung
[3] = tested on: NCI/ADR-RES ovarian
[4] = tested on: OVCAR-3 ovarian
[5] = tested on: OVCAR-4 ovarian
[6] = tested on: OVCAR-5 ovarian
[7] = tested on: OVCAR-8 ovarian
[8] = tested on: PC-3 prostate
[9] = tested on: RPMI-8226 leukemia
[10] = tested on: RXF 393 renal
[11] = tested on: SF-268 CNS
[12] = tested on: SF-295 CNS
[13] = tested on: SF-539 CNS
[14] = tested on: SK-MEL-2 melanoma
[15] = tested on: SK-MEL-28 melanoma
[16] = tested on: SK-MEL-5 melanoma
[17] = tested on: SK-OV-3 ovarian
[18] = tested on: SN12C renal
[19] = tested on: SNB-19 CNS
[20] = tested on: SNB-75 CNS
[21] = tested on: SR leukemia
[22] = tested on: SW-620 colon
[23] = tested on: T-47D breast
[24] = tested on: TK-10 renal
[25] = tested on: U251 CNS
[26] = tested on: UACC-257 melanoma
[27] = tested on: UACC-62 melanoma
[28] = tested on: UO-31 renal

In the case of `CCCC1(CN2c3ccccc3Sc3ccc(Cl)cc32)CCN(CC)C1` (stereo not given), the TGI [1] is reported as 3670 nM, the GI50 [2] is reported as 1900 nM and the TGI [2] is reported as 3640 nM. It also gave a GI50 [3] of 1680 nM, a TGI [3] of 3360 nM and a GI50 [4] of 1610 nM. It also gave a TGI [4] of 3090 nM, a GI50 [5] of 1750 nM and a TGI [5] of 3390 nM. It also gave a GI50 [6] of 1710 nM, a TGI [6] of 3480 nM and a GI50 [7] of 1780 nM. For the same compound, the TGI [7] was 3350 nM, the GI50 [8] was 1680 nM and the TGI [8] was 3380 nM. For the same compound, the GI50 [9] was 2590 nM, the TGI [9] was 5730 nM and the GI50 [10] was 1540 nM. For the same compound, the TGI [10] was 2940 nM, the GI50 [11] was 1860 nM and the TGI [11] was 3880 nM. The GI50 [12] was 1700 nM, the TGI [12] was 3300 nM and the GI50 [13] was 1850 nM. For the same compound, the TGI [13] was 3610 nM, the GI50 [14] was 2300 nM and the TGI [14] was 4280 nM. The GI50 [15] was 1920 nM, the TGI [15] was 3480 nM and the GI50 [16] was 1620 nM. It also gave a TGI [16] of 3000 nM, a GI50 [17] of 1770 nM and a TGI [17] of 3450 nM. The GI50 [18] was 3030 nM, the TGI [18] was 8740 nM and the GI50 [19] was 2000 nM. For the same compound, the TGI [19] was 3780 nM, the GI50 [20] was 1770 nM and the TGI [20] was 3740 nM. For the same compound, the GI50 [21] was 3170 nM, the TGI [21] was > 100000 nM and the GI50 [22] was 1700 nM. For the same compound, the TGI [22] was 3310 nM, the GI50 [23] was 2210 nM and the TGI [23] was 5030 nM. For the same compound, the GI50 [24] was 1700 nM, the TGI [24] was 3320 nM and the GI50 [25] was 1660 nM. It also gave a TGI [25] of 3160 nM, a GI50 [26] of 1770 nM and a TGI [26] of 3560 nM. For the same compound, the GI50 [27] was 1920 nM, the TGI [27] was 3600 nM and the GI50 [28] was 1510 nM. It also gave a TGI [28] of 2970 nM.
